In ChEMBL document CHEMBL5678818, “Discovery of potent SOS1 inhibitors that block RAS activation via disruption of the RAS-SOS1 interaction” (Proc Natl Acad Sci U S A, 2019):

Legend:
[1] = tested on: Tyrosine-protein kinase ABL1 (Homo sapiens), P00519 [E255K]; experiment: Inhibition of phosphorylated ABL1 E255K mutant (unknown origin) assessed as residual activity at 100 nM by KINOMEscan analysis relative to control
[2] = target: Casein kinase I isoform gamma-3 (Homo sapiens) (UniProt Q9Y6M4); experiment: Inhibition of CSNK1G3 (unknown origin) assessed as residual activity at 100 nM by KINOMEscan analysis relative to control
Sequence of Casein kinase I isoform gamma-3 (Homo sapiens) (Q9Y6M4 whole entry, looked up, canonical isoform): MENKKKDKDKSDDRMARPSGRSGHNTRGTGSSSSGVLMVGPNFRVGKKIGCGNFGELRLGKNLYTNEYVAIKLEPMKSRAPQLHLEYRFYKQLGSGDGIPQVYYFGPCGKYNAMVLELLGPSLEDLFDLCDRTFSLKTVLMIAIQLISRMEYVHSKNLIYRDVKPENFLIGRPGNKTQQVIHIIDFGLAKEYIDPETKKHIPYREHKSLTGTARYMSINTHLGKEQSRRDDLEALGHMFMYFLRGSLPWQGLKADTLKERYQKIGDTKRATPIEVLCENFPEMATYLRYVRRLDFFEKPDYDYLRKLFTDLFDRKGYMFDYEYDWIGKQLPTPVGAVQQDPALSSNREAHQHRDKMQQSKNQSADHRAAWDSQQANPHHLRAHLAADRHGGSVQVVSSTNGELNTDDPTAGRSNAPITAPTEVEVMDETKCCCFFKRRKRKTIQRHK

[3] = target: Tyrosine-protein kinase Fes/Fps (Homo sapiens) (UniProt P07332); experiment: Inhibition of FES (unknown origin) assessed as residual activity at 100 nM by KINOMEscan analysis relative to control
Sequence of Tyrosine-protein kinase Fes/Fps (Homo sapiens) (P07332 whole entry): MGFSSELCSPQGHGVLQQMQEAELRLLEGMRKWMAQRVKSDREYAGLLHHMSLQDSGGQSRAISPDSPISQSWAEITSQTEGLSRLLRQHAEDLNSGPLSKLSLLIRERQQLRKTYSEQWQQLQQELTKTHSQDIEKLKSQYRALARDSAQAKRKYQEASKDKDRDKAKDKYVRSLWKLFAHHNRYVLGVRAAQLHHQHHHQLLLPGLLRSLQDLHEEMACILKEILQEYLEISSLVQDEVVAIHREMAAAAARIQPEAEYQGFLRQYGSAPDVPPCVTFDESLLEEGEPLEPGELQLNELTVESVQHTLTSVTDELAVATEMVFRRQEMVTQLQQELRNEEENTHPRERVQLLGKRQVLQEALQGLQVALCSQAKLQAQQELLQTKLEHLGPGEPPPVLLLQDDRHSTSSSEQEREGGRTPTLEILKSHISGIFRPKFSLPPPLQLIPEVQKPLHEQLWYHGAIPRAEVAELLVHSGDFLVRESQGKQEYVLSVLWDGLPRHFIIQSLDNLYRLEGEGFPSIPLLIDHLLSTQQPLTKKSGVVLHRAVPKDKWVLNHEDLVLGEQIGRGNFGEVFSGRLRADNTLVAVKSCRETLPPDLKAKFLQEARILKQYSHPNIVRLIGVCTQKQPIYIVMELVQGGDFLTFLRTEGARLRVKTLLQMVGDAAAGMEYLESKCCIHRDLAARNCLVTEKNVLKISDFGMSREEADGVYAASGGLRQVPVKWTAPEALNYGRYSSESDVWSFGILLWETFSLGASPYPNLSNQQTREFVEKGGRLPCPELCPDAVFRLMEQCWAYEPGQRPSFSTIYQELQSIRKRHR

[4] = target: Mitogen-activated protein kinase 11 (Homo sapiens) (UniProt Q15759); experiment: Inhibition of p38-beta (unknown origin) assessed as residual activity at 100 nM by KINOMEscan analysis relative to control
Sequence of Mitogen-activated protein kinase 11 (Homo sapiens) (Q15759 whole entry): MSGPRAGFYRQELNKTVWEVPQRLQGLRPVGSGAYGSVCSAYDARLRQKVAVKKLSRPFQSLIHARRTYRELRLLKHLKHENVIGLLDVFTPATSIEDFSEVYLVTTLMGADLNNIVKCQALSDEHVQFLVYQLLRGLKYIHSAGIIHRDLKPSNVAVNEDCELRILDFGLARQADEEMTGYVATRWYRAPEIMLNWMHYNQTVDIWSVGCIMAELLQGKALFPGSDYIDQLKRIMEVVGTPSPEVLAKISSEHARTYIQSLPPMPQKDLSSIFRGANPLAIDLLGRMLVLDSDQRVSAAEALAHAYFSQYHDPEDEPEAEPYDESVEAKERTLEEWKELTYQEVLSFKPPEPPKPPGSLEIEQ

[5] = target: Death-associated protein kinase 2 (Homo sapiens) (UniProt Q9UIK4); experiment: Inhibition of DAPK2 (unknown origin) assessed as residual activity at 100 nM by KINOMEscan analysis relative to control
Sequence of Death-associated protein kinase 2 (Homo sapiens) (Q9UIK4 whole entry, looked up): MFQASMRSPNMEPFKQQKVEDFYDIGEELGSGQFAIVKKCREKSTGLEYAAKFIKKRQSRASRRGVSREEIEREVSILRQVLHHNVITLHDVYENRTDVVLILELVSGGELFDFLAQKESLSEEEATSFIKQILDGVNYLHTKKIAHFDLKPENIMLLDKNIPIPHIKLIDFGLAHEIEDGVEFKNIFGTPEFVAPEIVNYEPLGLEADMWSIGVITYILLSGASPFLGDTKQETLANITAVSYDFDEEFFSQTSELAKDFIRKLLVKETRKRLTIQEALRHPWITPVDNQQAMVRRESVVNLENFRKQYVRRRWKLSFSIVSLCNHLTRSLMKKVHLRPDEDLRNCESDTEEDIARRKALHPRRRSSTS

[6] = target: T1, Serine/threonine-protein kinase DCLK3 (Homo sapiens) (UniProt Q9C098); experiment: Inhibition of DCAMKL3 (unknown origin) assessed as residual activity at 100 nM by KINOMEscan analysis relative to control
T1 sequence (whole entry): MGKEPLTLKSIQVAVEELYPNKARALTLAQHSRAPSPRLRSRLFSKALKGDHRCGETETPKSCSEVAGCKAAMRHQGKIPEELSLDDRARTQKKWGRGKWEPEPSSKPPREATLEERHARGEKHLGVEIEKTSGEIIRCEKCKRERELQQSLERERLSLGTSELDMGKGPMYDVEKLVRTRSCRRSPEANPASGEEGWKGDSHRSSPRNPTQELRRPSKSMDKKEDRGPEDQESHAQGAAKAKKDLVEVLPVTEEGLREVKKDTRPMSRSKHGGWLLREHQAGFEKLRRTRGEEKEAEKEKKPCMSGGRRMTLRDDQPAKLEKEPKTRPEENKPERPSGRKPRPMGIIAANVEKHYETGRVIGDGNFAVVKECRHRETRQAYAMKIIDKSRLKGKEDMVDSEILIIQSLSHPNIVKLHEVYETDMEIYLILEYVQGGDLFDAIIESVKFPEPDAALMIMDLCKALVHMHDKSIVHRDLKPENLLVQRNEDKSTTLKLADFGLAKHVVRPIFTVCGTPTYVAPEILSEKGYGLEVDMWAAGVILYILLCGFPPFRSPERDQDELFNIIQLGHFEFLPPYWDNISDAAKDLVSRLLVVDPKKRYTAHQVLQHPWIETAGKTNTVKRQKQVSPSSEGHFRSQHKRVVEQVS

[7] = tested on: Tyrosine-protein kinase ABL1 (Homo sapiens), P00519 [F317I]; experiment: Inhibition of nonphosphorylated ABL1 F317I mutant (unknown origin) assessed as residual activity at 100 nM by KINOMEscan analysis relative to control
Sequence of Tyrosine-protein kinase ABL1 (Homo sapiens), P00519 [F317I] (P00519 whole entry F317I): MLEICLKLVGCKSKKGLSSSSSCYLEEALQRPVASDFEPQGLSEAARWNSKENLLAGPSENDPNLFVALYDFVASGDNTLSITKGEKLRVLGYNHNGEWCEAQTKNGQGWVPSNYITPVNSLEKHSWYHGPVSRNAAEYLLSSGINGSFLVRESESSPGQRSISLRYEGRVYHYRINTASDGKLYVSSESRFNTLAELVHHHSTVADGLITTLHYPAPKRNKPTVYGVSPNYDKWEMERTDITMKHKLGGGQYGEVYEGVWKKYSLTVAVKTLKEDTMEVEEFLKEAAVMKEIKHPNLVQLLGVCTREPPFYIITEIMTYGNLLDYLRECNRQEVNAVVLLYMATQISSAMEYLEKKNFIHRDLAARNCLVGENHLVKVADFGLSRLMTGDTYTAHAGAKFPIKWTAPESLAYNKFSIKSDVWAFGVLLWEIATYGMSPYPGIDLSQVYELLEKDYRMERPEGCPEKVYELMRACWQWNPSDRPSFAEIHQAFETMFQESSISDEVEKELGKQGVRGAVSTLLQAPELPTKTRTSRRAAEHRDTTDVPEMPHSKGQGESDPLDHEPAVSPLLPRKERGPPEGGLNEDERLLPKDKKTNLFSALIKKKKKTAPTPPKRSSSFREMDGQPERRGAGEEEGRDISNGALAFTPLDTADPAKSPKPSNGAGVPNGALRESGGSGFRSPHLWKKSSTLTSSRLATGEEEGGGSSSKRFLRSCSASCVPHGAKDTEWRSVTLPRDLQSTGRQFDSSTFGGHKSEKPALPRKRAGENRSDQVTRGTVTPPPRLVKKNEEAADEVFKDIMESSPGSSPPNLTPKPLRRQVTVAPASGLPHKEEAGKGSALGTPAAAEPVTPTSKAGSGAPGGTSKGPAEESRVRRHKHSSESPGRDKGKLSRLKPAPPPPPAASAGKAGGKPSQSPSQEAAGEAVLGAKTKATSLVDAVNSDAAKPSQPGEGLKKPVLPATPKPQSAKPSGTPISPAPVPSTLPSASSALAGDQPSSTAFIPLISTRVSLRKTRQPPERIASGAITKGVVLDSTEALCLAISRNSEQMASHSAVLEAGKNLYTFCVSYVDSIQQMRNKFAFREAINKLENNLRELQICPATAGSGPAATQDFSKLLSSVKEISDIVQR

[8] = target: T2, Tyrosine-protein kinase Mer (Homo sapiens) (UniProt Q12866); experiment: Inhibition of MERTK (unknown origin) assessed as residual activity at 100 nM by KINOMEscan analysis relative to control
T2 sequence (whole entry): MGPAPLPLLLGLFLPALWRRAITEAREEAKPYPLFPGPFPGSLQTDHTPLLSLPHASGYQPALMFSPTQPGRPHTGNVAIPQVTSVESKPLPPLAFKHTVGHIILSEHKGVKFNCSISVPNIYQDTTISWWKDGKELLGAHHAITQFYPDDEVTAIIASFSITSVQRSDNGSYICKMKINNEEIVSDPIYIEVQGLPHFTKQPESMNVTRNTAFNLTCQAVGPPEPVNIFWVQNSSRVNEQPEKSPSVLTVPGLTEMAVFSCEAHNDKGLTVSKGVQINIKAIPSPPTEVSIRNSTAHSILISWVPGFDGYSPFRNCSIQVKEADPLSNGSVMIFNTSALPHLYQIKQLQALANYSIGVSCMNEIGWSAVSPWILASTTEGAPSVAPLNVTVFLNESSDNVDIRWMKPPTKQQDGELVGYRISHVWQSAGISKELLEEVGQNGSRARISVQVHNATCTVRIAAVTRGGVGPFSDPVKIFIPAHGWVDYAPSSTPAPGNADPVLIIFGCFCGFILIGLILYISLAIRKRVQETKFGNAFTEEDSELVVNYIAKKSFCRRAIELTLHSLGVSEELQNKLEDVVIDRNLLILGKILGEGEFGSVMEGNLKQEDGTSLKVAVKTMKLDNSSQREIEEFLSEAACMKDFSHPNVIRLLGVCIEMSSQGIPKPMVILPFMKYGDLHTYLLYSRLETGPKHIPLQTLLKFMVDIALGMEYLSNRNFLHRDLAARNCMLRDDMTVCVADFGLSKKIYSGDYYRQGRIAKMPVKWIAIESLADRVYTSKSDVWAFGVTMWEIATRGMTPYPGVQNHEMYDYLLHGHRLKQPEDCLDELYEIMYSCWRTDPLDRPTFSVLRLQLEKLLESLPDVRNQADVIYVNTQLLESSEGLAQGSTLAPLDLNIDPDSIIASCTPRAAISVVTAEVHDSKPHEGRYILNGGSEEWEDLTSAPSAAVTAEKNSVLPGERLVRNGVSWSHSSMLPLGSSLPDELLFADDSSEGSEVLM

[9] = target: Mitogen-activated protein kinase kinase kinase 14 (Homo sapiens) (UniProt Q99558); experiment: Inhibition of NIK (unknown origin) assessed as residual activity at 100 nM by KINOMEscan analysis relative to control
Sequence of Mitogen-activated protein kinase kinase kinase 14 (Homo sapiens) (Q99558 whole entry, looked up): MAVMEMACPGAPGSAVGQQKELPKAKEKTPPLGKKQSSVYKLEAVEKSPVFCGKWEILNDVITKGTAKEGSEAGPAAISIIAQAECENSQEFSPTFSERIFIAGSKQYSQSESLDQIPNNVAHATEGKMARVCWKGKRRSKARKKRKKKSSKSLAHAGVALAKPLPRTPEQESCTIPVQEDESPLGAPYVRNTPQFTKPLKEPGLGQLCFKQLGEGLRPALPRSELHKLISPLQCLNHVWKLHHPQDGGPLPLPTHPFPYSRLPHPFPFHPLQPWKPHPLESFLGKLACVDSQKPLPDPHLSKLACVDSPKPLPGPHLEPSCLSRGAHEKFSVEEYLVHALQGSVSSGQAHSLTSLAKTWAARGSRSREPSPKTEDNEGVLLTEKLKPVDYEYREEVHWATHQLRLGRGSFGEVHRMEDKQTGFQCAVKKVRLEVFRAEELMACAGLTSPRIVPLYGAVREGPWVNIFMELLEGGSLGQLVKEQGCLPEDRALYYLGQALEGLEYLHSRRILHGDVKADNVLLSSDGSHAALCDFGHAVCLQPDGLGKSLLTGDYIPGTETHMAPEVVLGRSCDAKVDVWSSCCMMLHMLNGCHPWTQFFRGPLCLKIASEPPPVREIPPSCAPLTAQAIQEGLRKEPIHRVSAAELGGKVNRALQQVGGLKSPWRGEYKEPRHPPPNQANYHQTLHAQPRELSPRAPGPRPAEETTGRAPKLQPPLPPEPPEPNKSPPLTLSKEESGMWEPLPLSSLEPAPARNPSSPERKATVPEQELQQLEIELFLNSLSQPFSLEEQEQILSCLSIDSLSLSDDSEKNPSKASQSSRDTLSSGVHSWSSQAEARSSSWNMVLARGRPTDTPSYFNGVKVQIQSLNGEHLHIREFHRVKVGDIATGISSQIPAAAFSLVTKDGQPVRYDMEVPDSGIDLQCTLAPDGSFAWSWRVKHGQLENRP

[10] = target: Glycogen synthase kinase-3 beta (Homo sapiens) (UniProt P49841); experiment: Inhibition of GSK3B (unknown origin) assessed as residual activity at 100 nM by KINOMEscan analysis relative to control
[11] = target: T3, Dual specificity mitogen-activated protein kinase kinase 4 (Homo sapiens) (UniProt P45985); experiment: Inhibition of MEK4 (unknown origin) assessed as residual activity at 100 nM by KINOMEscan analysis relative to control
T3 sequence (whole entry): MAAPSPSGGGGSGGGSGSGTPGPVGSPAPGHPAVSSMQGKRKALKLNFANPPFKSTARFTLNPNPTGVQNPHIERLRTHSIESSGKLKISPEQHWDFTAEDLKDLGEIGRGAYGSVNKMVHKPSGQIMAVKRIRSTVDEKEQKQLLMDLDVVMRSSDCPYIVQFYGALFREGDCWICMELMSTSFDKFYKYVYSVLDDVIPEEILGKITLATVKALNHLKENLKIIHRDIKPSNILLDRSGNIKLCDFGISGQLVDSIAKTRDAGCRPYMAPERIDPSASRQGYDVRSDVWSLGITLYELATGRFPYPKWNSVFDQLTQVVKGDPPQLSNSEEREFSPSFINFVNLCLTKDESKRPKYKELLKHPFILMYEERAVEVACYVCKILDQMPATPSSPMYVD

[12] = target: Bone morphogenetic protein receptor type-1A (Homo sapiens) (UniProt P36894); experiment: Inhibition of BMPR1A (unknown origin) assessed as residual activity at 100 nM by KINOMEscan analysis relative to control
Sequence of Bone morphogenetic protein receptor type-1A (Homo sapiens) (P36894 whole entry): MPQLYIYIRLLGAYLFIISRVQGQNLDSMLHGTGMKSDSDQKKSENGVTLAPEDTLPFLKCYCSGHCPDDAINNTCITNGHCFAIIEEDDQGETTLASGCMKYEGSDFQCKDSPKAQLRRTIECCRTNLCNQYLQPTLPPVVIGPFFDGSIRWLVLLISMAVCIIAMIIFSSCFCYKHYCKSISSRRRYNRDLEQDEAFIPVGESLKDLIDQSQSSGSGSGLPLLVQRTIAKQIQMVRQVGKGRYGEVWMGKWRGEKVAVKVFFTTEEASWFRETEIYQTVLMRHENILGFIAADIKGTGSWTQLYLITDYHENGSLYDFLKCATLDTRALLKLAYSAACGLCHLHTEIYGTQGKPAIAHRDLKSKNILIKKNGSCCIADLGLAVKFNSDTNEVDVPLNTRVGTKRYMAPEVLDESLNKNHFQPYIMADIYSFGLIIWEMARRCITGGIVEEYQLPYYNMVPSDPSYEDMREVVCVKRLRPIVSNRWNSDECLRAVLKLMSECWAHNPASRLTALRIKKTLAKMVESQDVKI

Sequence of Tyrosine-protein kinase ABL1 (Homo sapiens), P00519 [E255K] (P00519 whole entry E255K, canonical isoform): as the sequence (P00519 whole entry F317I) above, with E255K, I317F counted along it

With `COc1cc2ncnc(N[C@H](C)c3cccc4ccccc34)c2cc1OC` the Activity [1] was 99%, the Activity [2] was 87% and the Activity [3] was 78%. The Activity [4] was 81%, the Activity [5] was 100% and the Activity [6] was 84%. It also gave an Activity [7] of 85%, an Activity [8] of 97% and an Activity [9] of 81%. The Activity [10] was 94%, the Activity [11] was 93% and the Activity [12] was 71%.
